Experiments:
[1] = tested on: HT29 SN38 resistant colon cancer cells; assay: Cell viability (MTT assay); format: cell-based; details: 72 hours
Experimental: SN38 was applied to a SN38 sensitive colon cancer cell line (“HT29 parental”) and to a SN38 resistant colon cancer cell line (“HT29 SN38 resistant”).
The Log Concentration (μM) used are—1 for SN38. Data represents cell viability data (MTT assay) and cells were incubated with drugs for 72 hours.
The Log Concentrations (μM) used are—1 for SN38, and 1.5 for both Srpkin340 and Sphinx 31. Data represents cell viability data (MTT assay) and cells were incubated with drugs for 72 hours.

MAPKAP-K3 = target: T1, MAPKAP-K3 (Homo sapiens, UniProt Q16644); assay: Premier Screen kinase activity screening (33P ATP filter binding); format: biochemical; details: 10 μM SCO-101, mean of assay duplicates, read-out: Kinase activity (percentage of DMSO control)
T1 construct: MRC in Dundee (screening service)
Outline: (§1)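 Reported numbers are percent remaining kinase activity versus DMSO control (mean of duplicates, ± SD). They come from a radioactive 33P-ATP filter-binding assay run with 10 μM compound.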

TBK1 = target: T2, TBK1 (Homo sapiens, UniProt Q9UHD2); assay: as above; format: biochemical; details: 10 μM SCO-101, mean of assay duplicates, read-out: Kinase activity (percentage of DMSO control)
T2 construct: purchased MRC in Dundee (Premier Screen service)
Outline: as §1

ERK5 = target: T3, ERK5 (Homo sapiens, UniProt Q13164); assay: as above; format: biochemical; details: 10 μM SCO-101, mean of assay duplicates, read-out: Kinase activity (percentage of DMSO control)
T3 construct: MRC in Dundee (screening service)
Outline: as §1

DYRK3 = target: T4, DYRK3 (Homo sapiens, UniProt O43781); assay: as above; format: biochemical; details: 10 μM SCO-101, mean of assay duplicates, read-out: Kinase activity (percentage of DMSO control)
T4 construct: purchased MRC in Dundee (Premier Screen service)
T4 sequence (O43781 whole entry, species assumed): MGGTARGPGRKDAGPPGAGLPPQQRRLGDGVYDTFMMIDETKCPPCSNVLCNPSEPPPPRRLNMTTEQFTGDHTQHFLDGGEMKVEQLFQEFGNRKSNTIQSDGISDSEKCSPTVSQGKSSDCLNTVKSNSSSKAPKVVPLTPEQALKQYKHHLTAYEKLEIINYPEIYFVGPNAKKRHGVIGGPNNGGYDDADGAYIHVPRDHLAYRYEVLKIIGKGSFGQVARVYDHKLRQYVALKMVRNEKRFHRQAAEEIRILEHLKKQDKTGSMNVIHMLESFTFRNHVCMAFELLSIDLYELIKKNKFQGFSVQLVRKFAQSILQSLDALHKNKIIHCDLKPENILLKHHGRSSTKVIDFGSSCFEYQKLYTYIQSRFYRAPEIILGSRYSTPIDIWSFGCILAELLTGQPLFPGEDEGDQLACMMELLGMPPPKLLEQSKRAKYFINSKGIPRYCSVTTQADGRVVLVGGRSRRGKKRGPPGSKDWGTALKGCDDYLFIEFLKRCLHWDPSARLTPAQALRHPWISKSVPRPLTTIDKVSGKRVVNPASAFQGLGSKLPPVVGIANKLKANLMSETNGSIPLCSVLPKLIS
Outline: as §1

WNK1 = target: T5, WNK1 (Homo sapiens, UniProt Q9H4A3); assay: as above; format: biochemical; details: 10 μM SCO-101, mean of assay duplicates, read-out: Kinase activity (percentage of DMSO control)
T5 construct: purchased MRC Dundee, Premier Screen (contract screening service)
T5 sequence (Q9H4A3 whole entry, species assumed): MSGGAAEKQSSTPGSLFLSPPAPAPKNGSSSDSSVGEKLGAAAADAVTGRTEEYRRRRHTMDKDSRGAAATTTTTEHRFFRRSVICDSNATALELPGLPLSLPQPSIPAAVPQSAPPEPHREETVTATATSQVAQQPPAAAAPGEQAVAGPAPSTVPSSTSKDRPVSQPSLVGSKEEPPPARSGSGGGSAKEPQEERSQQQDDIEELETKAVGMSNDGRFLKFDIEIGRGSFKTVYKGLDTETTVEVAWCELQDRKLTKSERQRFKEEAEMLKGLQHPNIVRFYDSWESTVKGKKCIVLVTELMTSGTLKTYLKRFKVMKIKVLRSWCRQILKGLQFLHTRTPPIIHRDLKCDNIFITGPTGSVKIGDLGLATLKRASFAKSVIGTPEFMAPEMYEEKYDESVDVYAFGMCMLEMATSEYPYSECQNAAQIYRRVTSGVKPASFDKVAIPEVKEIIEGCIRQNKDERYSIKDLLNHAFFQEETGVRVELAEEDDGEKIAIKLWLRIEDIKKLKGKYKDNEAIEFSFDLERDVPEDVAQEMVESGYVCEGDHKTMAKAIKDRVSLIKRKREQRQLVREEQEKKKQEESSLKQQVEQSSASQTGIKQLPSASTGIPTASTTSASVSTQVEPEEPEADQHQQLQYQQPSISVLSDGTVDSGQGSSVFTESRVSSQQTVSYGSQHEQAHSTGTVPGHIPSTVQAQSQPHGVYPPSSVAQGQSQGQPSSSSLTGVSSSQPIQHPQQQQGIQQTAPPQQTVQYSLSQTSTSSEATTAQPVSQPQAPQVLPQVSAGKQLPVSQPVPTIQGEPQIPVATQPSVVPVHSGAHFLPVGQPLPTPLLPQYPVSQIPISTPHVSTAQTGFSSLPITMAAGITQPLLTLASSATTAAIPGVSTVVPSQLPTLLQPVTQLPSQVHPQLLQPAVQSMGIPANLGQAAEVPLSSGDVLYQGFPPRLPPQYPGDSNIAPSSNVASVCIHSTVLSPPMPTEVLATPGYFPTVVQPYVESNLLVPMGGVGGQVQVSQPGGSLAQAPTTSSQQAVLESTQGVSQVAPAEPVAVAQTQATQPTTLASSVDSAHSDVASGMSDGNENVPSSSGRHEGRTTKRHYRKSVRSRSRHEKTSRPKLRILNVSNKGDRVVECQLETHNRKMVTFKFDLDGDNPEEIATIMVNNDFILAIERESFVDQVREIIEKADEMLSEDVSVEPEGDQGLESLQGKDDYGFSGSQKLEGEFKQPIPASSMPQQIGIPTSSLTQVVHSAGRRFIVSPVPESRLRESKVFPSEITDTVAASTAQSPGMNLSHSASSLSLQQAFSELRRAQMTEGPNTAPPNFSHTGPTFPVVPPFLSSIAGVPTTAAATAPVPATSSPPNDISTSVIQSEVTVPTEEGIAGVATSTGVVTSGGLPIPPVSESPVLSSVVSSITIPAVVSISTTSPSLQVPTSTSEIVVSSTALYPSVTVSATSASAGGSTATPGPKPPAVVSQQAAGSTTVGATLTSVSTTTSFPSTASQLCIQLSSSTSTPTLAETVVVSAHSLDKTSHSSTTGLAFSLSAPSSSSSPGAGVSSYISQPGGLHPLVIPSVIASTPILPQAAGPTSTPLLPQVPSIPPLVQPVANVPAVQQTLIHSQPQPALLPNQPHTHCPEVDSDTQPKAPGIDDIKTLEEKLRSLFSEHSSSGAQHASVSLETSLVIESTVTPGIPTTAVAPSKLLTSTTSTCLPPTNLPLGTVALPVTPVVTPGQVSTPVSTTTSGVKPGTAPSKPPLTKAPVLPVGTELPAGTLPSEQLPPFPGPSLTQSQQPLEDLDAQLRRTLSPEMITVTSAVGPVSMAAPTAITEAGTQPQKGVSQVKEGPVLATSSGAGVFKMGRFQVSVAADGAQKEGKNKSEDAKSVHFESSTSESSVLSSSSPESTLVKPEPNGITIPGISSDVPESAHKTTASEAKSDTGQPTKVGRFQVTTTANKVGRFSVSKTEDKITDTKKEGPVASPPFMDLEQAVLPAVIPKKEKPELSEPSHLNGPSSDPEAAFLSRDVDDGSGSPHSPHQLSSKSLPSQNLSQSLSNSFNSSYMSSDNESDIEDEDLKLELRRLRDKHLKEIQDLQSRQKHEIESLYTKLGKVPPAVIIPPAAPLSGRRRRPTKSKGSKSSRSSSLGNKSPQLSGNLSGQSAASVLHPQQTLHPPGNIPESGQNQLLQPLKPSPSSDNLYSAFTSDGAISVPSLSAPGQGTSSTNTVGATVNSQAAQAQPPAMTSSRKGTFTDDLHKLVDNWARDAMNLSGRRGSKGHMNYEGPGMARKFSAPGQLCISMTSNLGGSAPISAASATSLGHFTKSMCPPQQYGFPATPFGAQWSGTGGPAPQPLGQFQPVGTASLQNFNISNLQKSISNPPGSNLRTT
Outline: as §1

PRAK = target: T6, PRAK (Homo sapiens, UniProt Q8IW41); assay: as above; format: biochemical; details: 10 μM SCO-101, mean of assay duplicates, read-out: Kinase activity (percentage of DMSO control)
T6 construct: purchased MRC in Dundee (Premier Screen service)
T6 sequence (Q8IW41 whole entry, species assumed): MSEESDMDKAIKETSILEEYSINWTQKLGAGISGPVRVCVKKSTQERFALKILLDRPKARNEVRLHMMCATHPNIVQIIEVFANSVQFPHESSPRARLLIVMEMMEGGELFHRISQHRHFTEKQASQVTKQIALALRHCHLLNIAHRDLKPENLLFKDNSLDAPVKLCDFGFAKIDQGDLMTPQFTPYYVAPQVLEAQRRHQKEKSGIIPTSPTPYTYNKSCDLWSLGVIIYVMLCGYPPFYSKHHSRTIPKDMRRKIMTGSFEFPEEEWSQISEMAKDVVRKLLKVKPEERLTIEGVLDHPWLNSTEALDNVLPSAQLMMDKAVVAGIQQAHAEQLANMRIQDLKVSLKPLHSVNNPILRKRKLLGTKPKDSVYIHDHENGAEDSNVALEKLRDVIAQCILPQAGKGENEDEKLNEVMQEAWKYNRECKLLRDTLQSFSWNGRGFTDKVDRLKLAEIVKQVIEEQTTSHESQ
Outline: as §1

YES1 = target: T7, YES1 (Homo sapiens, UniProt P07947); assay: as above; format: biochemical; details: 10 μM SCO-101, mean of assay duplicates, read-out: Kinase activity (percentage of DMSO control)
T7 construct: MRC Dundee (screening service)
Outline: as §1

MARK1 = target: T8, MARK1 (Homo sapiens, UniProt Q9P0L2); assay: as above; format: biochemical; details: 10 μM SCO-101, mean of assay duplicates, read-out: Kinase activity (percentage of DMSO control)
T8 construct: purchased MRC in Dundee (Premier Screen service)
T8 sequence (Q9P0L2 whole entry, species assumed): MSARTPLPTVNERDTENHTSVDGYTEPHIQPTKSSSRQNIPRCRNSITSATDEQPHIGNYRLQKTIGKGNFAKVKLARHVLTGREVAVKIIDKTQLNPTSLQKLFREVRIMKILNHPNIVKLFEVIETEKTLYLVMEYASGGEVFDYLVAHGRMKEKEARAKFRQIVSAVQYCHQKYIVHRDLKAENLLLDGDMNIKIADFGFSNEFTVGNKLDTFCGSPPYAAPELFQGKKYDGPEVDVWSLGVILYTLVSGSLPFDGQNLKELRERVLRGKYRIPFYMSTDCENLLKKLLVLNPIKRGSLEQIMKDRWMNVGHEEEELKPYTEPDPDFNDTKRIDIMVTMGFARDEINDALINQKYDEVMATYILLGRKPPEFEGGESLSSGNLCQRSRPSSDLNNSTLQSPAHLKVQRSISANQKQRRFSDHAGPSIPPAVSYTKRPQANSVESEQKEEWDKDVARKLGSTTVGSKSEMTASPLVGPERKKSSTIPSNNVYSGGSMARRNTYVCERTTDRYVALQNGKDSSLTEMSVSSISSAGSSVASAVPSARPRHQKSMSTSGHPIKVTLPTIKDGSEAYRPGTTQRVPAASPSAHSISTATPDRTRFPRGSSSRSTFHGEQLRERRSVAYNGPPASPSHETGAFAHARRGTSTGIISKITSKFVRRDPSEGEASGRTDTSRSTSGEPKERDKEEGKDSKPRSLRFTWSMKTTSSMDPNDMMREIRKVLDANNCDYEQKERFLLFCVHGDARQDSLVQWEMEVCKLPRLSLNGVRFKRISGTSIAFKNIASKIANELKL
Outline: as §1

MNK2 = target: T9, MNK2 (Homo sapiens, UniProt Q9HBH9); assay: as above; format: biochemical; details: 10 μM SCO-101, mean of assay duplicates, read-out: Kinase activity (percentage of DMSO control)
T9 construct: purchased MRC Dundee, Premier Screen (contract screening service)
Outline: as §1

PAK5 = PAK5 (Homo sapiens, UniProt Q9P286); assay: as above; format: biochemical; details: 10 μM SCO-101, mean of assay duplicates, read-out: Kinase activity (percentage of DMSO control)
Outline: as §1

MINK1 = target: T10, MINK1 (Homo sapiens, UniProt Q8N4C8); assay: as above; format: biochemical; details: 10 μM SCO-101, mean of assay duplicates, read-out: Kinase activity (percentage of DMSO control)
T10 construct: purchased MRC in Dundee (Premier Screen service)
Outline: as §1

EIF2AK3 = target: T11, EIF2AK3 (Homo sapiens, UniProt Q9NZJ5); assay: as above; format: biochemical; details: 10 μM SCO-101, mean of assay duplicates, read-out: Kinase activity (percentage of DMSO control)
T11 construct: MRC Dundee (screening service)
Outline: as §1

PHK = assay: as above; format: biochemical; details: 10 μM SCO-101, mean of assay duplicates
Outline: as §1

NEK2a = target: T12, NEK2a (Homo sapiens, UniProt P51955); assay: as above; format: biochemical; details: 10 μM SCO-101, mean of assay duplicates, read-out: Kinase activity (percentage of DMSO control)
T12 construct: purchased MRC in Dundee (Premier Screen service)
Outline: as §1

CLK2 = target: T13, CLK2 (Homo sapiens, UniProt P49760); assay: as above; format: biochemical; details: 10 μM SCO-101, mean of assay duplicates, read-out: Kinase activity (percentage of DMSO control)
T13 construct: MRC in Dundee (screening service)
Outline: as §1

IRAK4 = IRAK4 (Homo sapiens, UniProt Q9NWZ3); assay: as above; format: biochemical; details: 10 μM SCO-101, mean of assay duplicates, read-out: Kinase activity (percentage of DMSO control)
Outline: as §1

PKBa = target: T14, PKBa (Homo sapiens, UniProt P31749); assay: as above; format: biochemical; details: 10 μM SCO-101, mean of assay duplicates, read-out: Kinase activity (percentage of DMSO control)
T14 construct: purchased MRC in Dundee (Premier Screen service)
Outline: as §1

JNK3 = target: T15, JNK3 (Homo sapiens, UniProt P53779); assay: as above; format: biochemical; details: 10 μM SCO-101, mean of assay duplicates, read-out: Kinase activity (percentage of DMSO control)
T15 construct: purchased MRC Dundee, Premier Screen (contract screening service)
Outline: as §1

JNK1 = target: T16, JNK1 (Homo sapiens, UniProt P45983); assay: as above; format: biochemical; details: 10 μM SCO-101, mean of assay duplicates, read-out: Kinase activity (percentage of DMSO control)
T16 construct: purchased MRC Dundee, Premier Screen (contract screening service)
T16 sequence (P45983 whole entry, species assumed): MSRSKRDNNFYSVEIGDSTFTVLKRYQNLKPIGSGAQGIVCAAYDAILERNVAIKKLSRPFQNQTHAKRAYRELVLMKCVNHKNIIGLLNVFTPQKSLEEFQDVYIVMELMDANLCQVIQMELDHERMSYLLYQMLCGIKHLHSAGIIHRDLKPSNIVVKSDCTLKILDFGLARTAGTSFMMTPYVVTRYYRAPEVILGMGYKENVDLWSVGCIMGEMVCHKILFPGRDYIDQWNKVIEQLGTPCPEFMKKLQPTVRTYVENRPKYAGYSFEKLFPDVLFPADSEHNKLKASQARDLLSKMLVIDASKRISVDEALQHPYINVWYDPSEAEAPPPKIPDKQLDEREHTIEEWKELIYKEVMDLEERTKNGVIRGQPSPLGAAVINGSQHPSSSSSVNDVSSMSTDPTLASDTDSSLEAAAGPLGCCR
Outline: as §1

TTBK2 = target: T17, TTBK2 (Homo sapiens, UniProt Q6IQ55); assay: as above; format: biochemical; details: 10 μM SCO-101, mean of assay duplicates, read-out: Kinase activity (percentage of DMSO control)
T17 construct: purchased MRC Dundee, Premier Screen (contract screening service)
Outline: as §1

EPH-B2 = EPH-B2 (Homo sapiens, UniProt P29323); assay: as above; format: biochemical; details: 10 μM SCO-101, mean of assay duplicates, read-out: Kinase activity (percentage of DMSO control)
Outline: as §1

PIM2 = target: T18, PIM2 (Homo sapiens, UniProt Q9P1W9); assay: as above; format: biochemical; details: 10 μM SCO-101, mean of assay duplicates, read-out: Kinase activity (percentage of DMSO control)
T18 construct: purchased MRC in Dundee (Premier Screen service)
Outline: as §1

ERK2 = ERK2 (Homo sapiens, UniProt P28482); assay: as above; format: biochemical; details: 10 μM SCO-101, mean of assay duplicates, read-out: Kinase activity (percentage of DMSO control)
Chain of ERK2 (P28482 whole entry, species assumed): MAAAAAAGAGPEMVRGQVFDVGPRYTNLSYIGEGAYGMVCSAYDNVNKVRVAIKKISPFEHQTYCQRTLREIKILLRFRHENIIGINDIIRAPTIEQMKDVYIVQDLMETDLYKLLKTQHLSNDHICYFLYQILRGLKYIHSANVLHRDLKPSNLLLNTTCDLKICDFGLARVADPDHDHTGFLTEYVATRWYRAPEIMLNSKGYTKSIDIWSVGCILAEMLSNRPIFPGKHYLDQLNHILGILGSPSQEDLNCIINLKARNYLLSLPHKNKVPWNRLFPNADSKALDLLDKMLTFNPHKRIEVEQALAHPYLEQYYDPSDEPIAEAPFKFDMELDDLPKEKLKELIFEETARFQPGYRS
Outline: as §1

BRK = target: T19, BRK (Homo sapiens, UniProt Q13882); assay: as above; format: biochemical; details: 10 μM SCO-101, mean of assay duplicates, read-out: Kinase activity (percentage of DMSO control)
T19 construct: MRC in Dundee (screening service)
Outline: as §1

GCK = target: T20, GCK (Homo sapiens, UniProt Q12851); assay: as above; format: biochemical; details: 10 μM SCO-101, mean of assay duplicates, read-out: Kinase activity (percentage of DMSO control)
T20 construct: MRC in Dundee (screening service)
Outline: as §1

ASK1 = target: T21, ASK1 (Homo sapiens, UniProt Q99683); assay: as above; format: biochemical; details: 10 μM SCO-101, mean of assay duplicates, read-out: Kinase activity (percentage of DMSO control)
T21 construct: purchased MRC in Dundee (Premier Screen service)
Outline: as §1

RIPK2 = RIPK2 (Homo sapiens, UniProt O43353); assay: as above; format: biochemical; details: 10 μM SCO-101, mean of assay duplicates, read-out: Kinase activity (percentage of DMSO control)
Outline: as §1

MAPKAP-K2 = target: T22, MAPKAP-K2 (Homo sapiens, UniProt P49137); assay: as above; format: biochemical; details: 10 μM SCO-101, mean of assay duplicates, read-out: Kinase activity (percentage of DMSO control)
T22 construct: MRC Dundee (screening service)
Outline: as §1

MST3 = target: T23, MST3 (Homo sapiens, UniProt Q9Y6E0); assay: as above; format: biochemical; details: 10 μM SCO-101, mean of assay duplicates, read-out: Kinase activity (percentage of DMSO control)
T23 construct: purchased MRC in Dundee (Premier Screen service)
Outline: as §1

Aurora A = target: T24, Aurora A (Homo sapiens, UniProt O14965); assay: as above; format: biochemical; details: 10 μM SCO-101, mean of assay duplicates, read-out: Kinase activity (percentage of DMSO control)
T24 construct: MRC in Dundee (screening service)
Outline: as §1

EF2K = target: T25, EF2K (Homo sapiens, UniProt O00418); assay: as above; format: biochemical; details: 10 μM SCO-101, mean of assay duplicates, read-out: Kinase activity (percentage of DMSO control)
T25 construct: MRC Dundee (screening service)
Outline: as §1

O=C(Nc1cc(C(F)(F)F)cc(C(F)(F)F)c1)Nc1ccc(Br)cc1-c1nnn[nH]1 [SCO-101]
viability at 20 µM ([1]; Homo sapiens, HT-29, HT29 SN38 resistant, combination of SN38 0.1 μM and SCO-101 20 μM, read-out: cell viability, % of untreated control cells): 22% | re-sensitization of SN38 resistant HT29 cells to SN38 ([1]; SCO-101 20 μM with SN38 0.1 μM): re-sensitization | remaining activity at 10 µM (MAPKAP-K3): 85% | remaining activity at 10 µM (TBK1): 126% | remaining activity at 10 µM (ERK5): 90% | remaining activity at 10 µM (DYRK3): 59% | remaining activity at 10 µM (WNK1): 105% | remaining activity at 10 µM (PRAK): 69% | remaining activity at 10 µM (YES1): 99% | remaining activity at 10 µM (MARK1): 74% | remaining activity at 10 µM (MNK2): 104% | remaining activity at 10 µM (PAK5): 121% | remaining activity at 10 µM (MINK1): 173% | remaining activity at 10 µM (EIF2AK3): 103% | Kinase activity (percentage of DMSO control) (PHK): 88 percentage of DMSO control | remaining activity at 10 µM (NEK2a): 134% | remaining activity at 10 µM (CLK2): 86% | remaining activity at 10 µM (IRAK4): 112% | remaining activity at 10 µM (PKBa): 126% | remaining activity at 10 µM (JNK3): 112% | remaining activity at 10 µM (JNK1): 105% | remaining activity at 10 µM (TTBK2): 109% | remaining activity at 10 µM (EPH-B2): 117% | remaining activity at 10 µM (PIM2): 72% | remaining activity at 10 µM (ERK2): 119% | remaining activity at 10 µM (BRK): 94% | remaining activity at 10 µM (GCK): 92% | remaining activity at 10 µM (ASK1): 136% | remaining activity at 10 µM (RIPK2): 121% | remaining activity at 10 µM (MAPKAP-K2): 100% | remaining activity at 10 µM (MST3): 135% | remaining activity at 10 µM (Aurora A): 94% | remaining activity at 10 µM (EF2K): 95%

From patent US20210251963A1, “UREA DERIVATIVES FOR USE IN THE TREATMENT OF SUBJECTS WITH ELEVATED EXPRESSION AND/OR ACTIVITY OF SRPK1” (Scandion Oncology A/S, priority 2018, published 2021)
